Experimental data: patent US20150050388A1, “SYNBIOTIC FOOD COMPOSITION CONTAINING TAGATOSE AND PROBIOTIC LACTIC ACID BACTERIA” (CJ CHEILJEDANG CORPORATION, priority 2012, published 2015)

Legend:
P. pentosaceus = experiment: Capacity of using tagatose: live cell count after culture in minimal medium with added sugar; assay type: cell-based, Pediococcus pentosaceus; conditions: for Log10 Value of Live Cell Count: 24h, 37° C., minimal medium with the named sugar; for Tagatose/Glucose: ratio of 24h log10 live cell counts
Method: (§1) Pure culture solutions (1% culture solution in a stationary-phase in which a cell count of each of the strains is about 10^8 to 10^9 cfu/ml) of a total of 385 lactic acid bacteria strains were inoculated in selective media, respectively, and cultured in an incubator at 37° C. for 18 hours, followed by sub-culturing three times. Then, experiments proceeded at a state in which viability of the strain was optimal.
(§2) In order to evaluate the capacity of using tagatose of each of the lactic acid bacteria, a minimal medium composed of 5 g of peptone, 2.5 g of sodium acetate trihydrate, 0.5 ml of magnesium sulfate heptahydrate, 0.5 ml of manganese sulfate tetrahydrate, 5 ml of Tween 80, 1 g of diammonium citrate, 1 g of dipotassium phosphate, and 480 ml of distilled water was used.
(§3) After the medium was sterilized at 121° C. for 15 minutes and divided into three samples, 20 ml of 50% tagatose solution, 20 ml of 50% glucose solution, and 20 ml of 50% fructooligosaccharide solution (FOS) were added to each of the three samples, thereby preparing liquid media.
(§4) 1% of each of the lactic acid bacteria strains cultured as described above was inoculated in the prepared medium and cultured in an incubator at 37° C. for 24 hours. Thereafter, absorbance of each of the cultured strains was measured using an ELISA reader, and a cell count was measured through plate culture using a dilution solution, thereby evaluating the capacity of using tagatose.

L. farciminis = experiment: as above; assay type: cell-based, Lactobacillus farciminis; conditions: strain 18 (L. farciminis)
Method: as §1
(§5) In order to evaluate the capacity of using tagatose of each of the lactic acid bacteria, a minimal medium composed of 5 g of peptone, 2.5 g of sodium acetate trihydrate, 0.5 ml of magnesium sulfate heptahydrate, 0.5 ml of manganese sulfate tetrahydrate, 5 ml of Tween 80, 1 g of diammonium citrate, 1 g of dipotassium phosphate, and 480 ml of distilled water was used. […]
as §4

L. acidophilus = experiment: as above; assay type: cell-based, Lactobacillus acidophilus; conditions: strain 19 (L. acidophilus)
Method: as §1, §5, §4

L. rhamnosus = experiment: as above; assay type: cell-based, Lactobacillus rhamnosus; conditions: for Log10 Value of Live Cell Count: 24h, 37° C., minimal medium with the named sugar; for Tagatose/Glucose: ratio of 24h log10 live cell counts
Method: as §1, §2, §3, §4

L. rhamnosus GG = experiment: as above; assay type: cell-based, Lactobacillus rhamnosus; conditions: for Log10 Value of Live Cell Count: 24h, 37° C., minimal medium with the named sugar; for Tagatose/Glucose: ratio of 24h log10 live cell counts
Method: as §1, §2, §3, §4

L. casei DN114001 = experiment: as above; assay type: cell-based, Lactobacillus casei
Method: as §1, §2, §3, §4

L. casei Shirota = experiment: as above; assay type: cell-based, Lactobacillus casei
Method: as §1, §2, §3, §4

L. casei-01® = experiment: as above; assay type: cell-based, Lactobacillus casei
Method: as §1, §2, §3, §4

L. casei = experiment: as above; assay type: cell-based, Lactobacillus casei; conditions: for Log10 Value of Live Cell Count: 24h, 37° C., minimal medium with the named sugar; for Tagatose/Glucose: ratio of 24h log10 live cell counts
Method: as §1, §2, §3, §4

[1] = tested on: lactic acid bacteria strains efficiently using tagatose; experiment: Growth curves of lactic acid bacteria on other prebiotics (Example 3); assay type: cell-based; conditions: 9 strains, 37° C., live cell count at 0, 5, 10, 24 and 48 hours
Method: Capacity of using other prebiotics except for tagatose was evaluated, compared and analyzed using 9 strains having excellent capacity of using tagatose among the 19 strains identified in Example 2.
For the present evaluation, at the time of preparing the medium used in Example 1, as a positive control group, glucose was used except for tagatose, and as negative control groups, fructooligosaccharide, lactitol, lactulose, and xylitol were used.
Each of the Lactobacillus casei (FIG. 1), Lactobacillus casei Shirota (FIG. 2), Lactobacillus casei DN114001 (FIG. 3), Lactobacillus casei-01® (FIG. 4), Lactobacillus rhamnosus (FIG. 5), Lactobacillus rhamnosus GG (FIG. 6), Pediococcus pentosaceus (FIG. 7), Lactobacillus farciminis (FIG. 8), and Lactobacillus acidophilus (FIG. 9) that were identified in Example 2 was inoculated in each of the media and cultured at 37° C. for 0, 5, 10, 24, and 48 hours. Then, a live cell count thereof was measured, such that a growth curve of each of the strains was obtained.

[2] = 24h, 37° C., minimal medium with the named sugar
[3] = ratio of 24h log10 live cell counts

`O=C(CO)[C@@H](O)[C@@H](O)[C@H](O)CO` [Tagatose, tagatose] was tested. Which “Log10 Value of Live Cell Count” value (P. pentosaceus; strain 16 (P. pentosaceus)) did it give?
Its value is 8.798.

What about the Tagatose/Glucose (P. pentosaceus; strain 16 (P. pentosaceus)) of the same molecule?
The Tagatose/Glucose was 99.1%.

What about the “Log10 Value of Live Cell Count” value (P. pentosaceus; strain 17 (P. pentosaceus)) of the same molecule?
Its value is 8.953.

What about the Tagatose/Glucose (P. pentosaceus; strain 17 (P. pentosaceus)) of the same molecule?
The Tagatose/Glucose was 98.8%.

And the “Log10 Value of Live Cell Count” value (L. farciminis; [2])?
The value was 8.601.

And the Tagatose/Glucose (L. farciminis; [3])?
The Tagatose/Glucose was 99.2%.

What about the “Log10 Value of Live Cell Count” value (L. acidophilus; [2]) of the same molecule?
The value was 7.913.

What about the Tagatose/Glucose (L. acidophilus; [3]) of the same molecule?
The Tagatose/Glucose was 98.4%.

And the “Log10 Value of Live Cell Count” value (L. rhamnosus; strain 10 (L. rhamnosus))?
Its value is 7.939.

And the Tagatose/Glucose (L. rhamnosus; strain 10 (L. rhamnosus))?
Its Tagatose/Glucose is 98.5%.

What about the “Log10 Value of Live Cell Count” value (L. rhamnosus; strain 11 (L. rhamnosus)) of the same molecule?
Its value is 8.031.

And the Tagatose/Glucose (L. rhamnosus; strain 11 (L. rhamnosus))?
The Tagatose/Glucose was 99.2%.

What about the “Log10 Value of Live Cell Count” value (L. rhamnosus; strain 12 (L. rhamnosus)) of the same molecule?
The value was 8.059.

And the Tagatose/Glucose (L. rhamnosus; strain 12 (L. rhamnosus))?
The Tagatose/Glucose was 98.5%.

What about the “Log10 Value of Live Cell Count” value (L. rhamnosus; strain 13 (L. rhamnosus)) of the same molecule?
Its value is 8.169.

And the Tagatose/Glucose (L. rhamnosus; strain 13 (L. rhamnosus))?
The Tagatose/Glucose was 99.5%.

What about the “capacity of using tagatose” value (L. rhamnosus GG; L. rhamnosus GG, as compared to the other strains of Table 1) of the same molecule?
Its value is “significantly excellent capacity of using tagatose”.

And the “Log10 Value of Live Cell Count” value (L. rhamnosus GG; strain 14 (L. rhamnosus GG))?
Its value is 8.548.

What about the Tagatose/Glucose (L. rhamnosus GG; strain 14 (L. rhamnosus GG)) of the same molecule?
The Tagatose/Glucose was 105.0%.

And the “Log10 Value of Live Cell Count” value (L. rhamnosus GG; strain 15 (L. rhamnosus GG))?
Its value is 8.822.

What about the Tagatose/Glucose (L. rhamnosus GG; strain 15 (L. rhamnosus GG)) of the same molecule?
Its Tagatose/Glucose is 103.5%.

And the “capacity of using tagatose” value (L. casei DN114001; L. casei DN114001, as compared to the other strains of Table 1)?
The value was “significantly excellent capacity of using tagatose”.

And the “Log10 Value of Live Cell Count” value (L. casei DN114001; strain 8 (L. casei DN114001), 24h, 37° C., minimal medium with the named sugar)?
Its value is 8.953.

What about the Tagatose/Glucose (L. casei DN114001; strain 8 (L. casei DN114001), ratio of 24h log10 live cell counts) of the same molecule?
The Tagatose/Glucose was 101.7%.

And the “capacity of using tagatose” value (L. casei Shirota; L. casei Shirota, as compared to the other strains of Table 1)?
The value was “significantly excellent capacity of using tagatose”.

What about the “Log10 Value of Live Cell Count” value (L. casei Shirota; strain 7 (L. casei Shirota), 24h, 37° C., minimal medium with the named sugar) of the same molecule?
The value was 9.054.

And the Tagatose/Glucose (L. casei Shirota; strain 7 (L. casei Shirota), ratio of 24h log10 live cell counts)?
The Tagatose/Glucose was 101.4%.

And the “capacity of using tagatose” value (L. casei-01®; L. casei-01, as compared to the other strains of Table 1)?
Its value is “significantly excellent capacity of using tagatose”.

And the “Log10 Value of Live Cell Count” value (L. casei-01®; strain 9 (L. casei-01®), 24h, 37° C., minimal medium with the named sugar)?
Its value is 9.068.

And the Tagatose/Glucose (L. casei-01®; strain 9 (L. casei-01®), ratio of 24h log10 live cell counts)?
Its Tagatose/Glucose is 101.4%.

And the “Log10 Value of Live Cell Count” value (L. casei; strain 1 (L. casei))?
Its value is 7.882.

What about the Tagatose/Glucose (L. casei; strain 1 (L. casei)) of the same molecule?
The Tagatose/Glucose was 100.3%.

And the “Log10 Value of Live Cell Count” value (L. casei; strain 2 (L. casei))?
Its value is 8.137.

What about the Tagatose/Glucose (L. casei; strain 2 (L. casei)) of the same molecule?
The Tagatose/Glucose was 100.1%.

And the “Log10 Value of Live Cell Count” value (L. casei; strain 3 (L. casei))?
The value was 8.240.

And the Tagatose/Glucose (L. casei; strain 3 (L. casei))?
Its Tagatose/Glucose is 99.6%.

What about the “Log10 Value of Live Cell Count” value (L. casei; strain 4 (L. casei)) of the same molecule?
Its value is 8.424.

And the Tagatose/Glucose (L. casei; strain 4 (L. casei))?
The Tagatose/Glucose was 99.0%.

What about the “Log10 Value of Live Cell Count” value (L. casei; strain 5 (L. casei)) of the same molecule?
The value was 8.449.

What about the Tagatose/Glucose (L. casei; strain 5 (L. casei)) of the same molecule?
Its Tagatose/Glucose is 93.1%.

And the “Log10 Value of Live Cell Count” value (L. casei; strain 6 (L. casei))?
Its value is 8.767.

And the Tagatose/Glucose (L. casei; strain 6 (L. casei))?
The Tagatose/Glucose was 98.8%.

With `OC[C@@H](O)[C@@H](O[C@@H]1O[C@H](CO)[C@H](O)[C@H](O)[C@H]1O)[C@H](O)[C@@H](O)CO` [lactitol] as the molecule, how does the “capacity of using the sugar (comparison of growth curves)” value [1] read?
The value was “low”.
